# Results taken from paper PMC4501059, “Responding to the challenge of untreatable gonorrhea: ETX0914, a first-in-class agent with a distinct mechanism-of-action against bacterial Type II topoisomerases” (Scientific Reports, 2015).
# Like-named read-outs stand apart in the source and are kept apart here.
# Assays:
# [1] = test system: S. aureus ARC516; assay: MIC (CLSI broth microdilution); assay type: cell-based
# [2] = test system: mammalian myeloid cell lines; assay: myeloid cytotoxicity (growth inhibition); assay type: cell-based; details: read-out: Myeloid IC50
# Protocol: In vitro toxicology. Experiments for assessing micronuclei in mouse lymphoma cells^19 myeloid cytotoxicity^20 and erythroid cytotoxicity^21 were performed as described previously.
# [3] = hepatocyte intrinsic clearance; assay type: in vitro ADME; details: male, Beagle, dog hepatocytes
# Text: Supplement srep11827-s1.doc, table 4 | column: Beagle dog (male)
# [4] = Single dose pharmacokinetics, rat; assay type: in vivo; details: Han-Wister rat (male)
# Protocol: (§1) AZD0914 was analyzed in mouse, rat, dog, monkey plasma using a qualified method which was later validated for human plasma analysis. The validated human method is described below and is representative of the approach taken in other species. AZD0914 was determined in human plasma prepared with K2EDTA as an anticoagulant. AZD0914 and an internal standard (^13C2, ^15N2 AZD0914) were extracted from plasma with tert- butyl methyl ether. After evaporating to dryness under a stream of nitrogen, the residue was reconstituted and quantitated by reverse phase HPLC-MS/MS against a standard curve from 1.00 to 5000 ng/ml. Separation was achieved using a gradient which went from 55% to 85% methanol:acetonitrile (1:1) containing 0.2% formic acid as mobile phase B and 0.2% formic acid in water as mobile phase A at a flow rate of 0.60 ml/min through a Phenomonex Gemini C18 column (50 x 2.0 mm column, […]) heated using a Shimadzu CTO-20AC set to 40 °C. AZD0914 was detected in multiple reaction monitoring (MRM) mode by positive ion electrospray ionization using a Sciex API5500 (Toronto, Canada) mass spectrometer. The ion spray voltage was set to 5500 V and turboionspray temperature was 650 °C. AZD0914 was quantitated using the MRM transition 488.2 → 348.2 using a collision energy of 29 eV. The internal standard, (^13C2, ^15N2 AZD0914), was monitored using identical conditions except for the MRM transition of 492.2 → 348.2.
# [5] = 28 day oral toxicology study, rat; assay type: in vivo, Han Wistar rat; details: for NOAEL at 28 days: in vivo
# Protocol: The following dosing formulation for rat and dog 28 day PO studies was used: a 100 mg/mL stock of ETX0914 in 5% dextrose and 2.5M meglumine adjusted to pH 9 using 5M HCl or 2.5M meglumine. The dosing formulations were diluted as required with phosphate buffered saline and dispensed daily. […] A control group of 10 male and 10 females were given the vehicle only. An additional 3 animals per sex were allocated to each group for toxicokinetics wherein blood samples (1 mL) from the tail vein pre-trial and on Day 27 were collected. […] Animals were terminated by exposure to CO2. The following were assessed: clinical observations, body weight, food consumption, body temperature, hematology, plasma chemistry, toxicokinetics and gross and microscopic pathology.
# [6] = Phase 1 study in healthy volunteers, oral suspension; assay type: in vivo, human
# Protocol: A Phase 1 multipart study[65] in healthy adult volunteers (informed consent with males and females of non-childbearing potential) with ETX0914 was performed under approval of the AstraZeneca Innovative Medicines Safety Review Board and the United States Food and Drug Administration. ETX0914 was administered orally as an aqueous suspension containing 1% w/v povidone K29–32, 0.2% m/v sodium lauryl sulfate and 0.25% w/v glycerin. In Part A of this study, 48 healthy subjects (ranging in age from 19 to 55 years) under fasting conditions received single ascending doses of 200–4000 mg formulated ETX0914 or placebo (6:2, ETX0914:placebo). In Part B, a second set of 18 healthy subjects (ranging in age from 22 to 48 years) were randomized into two equal dosing cohorts receiving a single dose of either 1500 mg ([…]) or 3000 mg ([…]) of ETX0914 in the fasting state and 30 minutes after a meal. Safety monitoring for both Parts A and B included vital signs, electrocardiogram, continuous telemetry, safety laboratory testing (clinical chemistry, haematology and urinalysis) and adverse events monitoring. Blood samples (1 mL) were collected at 0.5, 1, 1.5, 2, 2.5, 3, 4, 5, 6, 8, 10, 12, 24, 36, 48 and 72 h post dose. Urine samples were collected during−12 to 0 hours pre-dose, and 0 to 4, 4 to 8, 8 to 12, 12 to 24, 24 to 48, and 48 to 72 h post-dose. PK parameters were separately determined for the cohorts in each of the Part A and Part B studies. Concentrations of ETX0914 in the plasma and urine were quantified by LC-MS/MS. Plasma PK parameters were calculated using Phoenix WinNonLin software.
# as §1
# [7] = test system: MRSA ATCC33591; assay: MIC (modal, CLSI broth microdilution); assay type: cell-based, S. aureus; details: Staphylococcus aureus, read-out: Modal MIC
# [8] = test system: Streptococcus pyogenes; parameters: method as in ref 2 (supplement); details: 1358 tested; ref 2 (supplement); cited from earlier work
# [9] = test system: Mycoplasma pneumoniae; parameters: method as in ref 3 (supplement); details: 21 tested; ref 3 (supplement); cited from earlier work
# [10] = molecular target: hERG (Homo sapiens, UniProt Q12809); assay: In vitro ion channel function
# [11] = both sexes, human, plasma, oral, 3000 mg, fasting
# hERG, sequence (Q12809 whole entry): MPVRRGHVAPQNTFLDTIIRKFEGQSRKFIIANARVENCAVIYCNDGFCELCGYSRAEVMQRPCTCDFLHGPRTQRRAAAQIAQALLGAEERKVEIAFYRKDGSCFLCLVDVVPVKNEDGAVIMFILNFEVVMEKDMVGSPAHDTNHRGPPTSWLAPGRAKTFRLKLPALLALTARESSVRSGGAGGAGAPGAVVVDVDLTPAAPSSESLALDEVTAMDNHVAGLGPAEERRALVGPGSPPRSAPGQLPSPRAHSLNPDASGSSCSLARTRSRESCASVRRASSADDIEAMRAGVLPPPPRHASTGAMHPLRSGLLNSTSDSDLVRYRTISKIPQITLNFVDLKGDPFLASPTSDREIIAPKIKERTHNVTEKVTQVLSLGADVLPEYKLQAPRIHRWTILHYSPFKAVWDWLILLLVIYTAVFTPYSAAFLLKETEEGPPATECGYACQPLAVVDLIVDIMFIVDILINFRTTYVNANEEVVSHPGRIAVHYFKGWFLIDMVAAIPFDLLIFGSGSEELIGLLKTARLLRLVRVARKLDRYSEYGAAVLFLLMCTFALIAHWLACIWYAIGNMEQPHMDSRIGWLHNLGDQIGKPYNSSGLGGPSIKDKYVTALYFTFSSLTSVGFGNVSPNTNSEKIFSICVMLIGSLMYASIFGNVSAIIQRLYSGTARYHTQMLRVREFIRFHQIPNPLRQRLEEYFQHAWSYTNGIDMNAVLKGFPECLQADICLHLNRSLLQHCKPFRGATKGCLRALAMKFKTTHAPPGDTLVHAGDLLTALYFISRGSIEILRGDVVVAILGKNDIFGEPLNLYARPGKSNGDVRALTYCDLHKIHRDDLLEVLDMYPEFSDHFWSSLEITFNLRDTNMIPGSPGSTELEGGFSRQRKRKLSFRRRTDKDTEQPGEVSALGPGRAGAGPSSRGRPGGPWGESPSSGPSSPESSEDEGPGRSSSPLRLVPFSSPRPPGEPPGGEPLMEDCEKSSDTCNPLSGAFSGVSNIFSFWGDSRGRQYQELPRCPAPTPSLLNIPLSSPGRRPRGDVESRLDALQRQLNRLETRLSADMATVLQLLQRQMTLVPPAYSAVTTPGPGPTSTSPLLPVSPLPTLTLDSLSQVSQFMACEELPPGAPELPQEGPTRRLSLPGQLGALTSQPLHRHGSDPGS
compound,measurement,setting,value
C[C@@H]1CN2c3c(cc4c(N5C(=O)OC[C@@H]5C)noc4c3F)CC3(C(=O)NC(=O)NC3=O)[C@H]2[C@H](C)O1 [ETX0914],MIC: S. aureus ARC516,[1],0.125 µg/mL
same,MIC,"[1]; Staphylococcus aureus, MSSA, read-out: Modal MIC",0.0625 µg/mL
same,IC50,[2],> 100 µM
same,hepatocyte CLint at 1 µM,[3],3.8 µL/min/1e6 cells
same,Ka,[4],1.6 h⁻¹
same,clearance,"[4]; plasma, IV 10 mg/kg, read-out: Clp (IV)",22 mL/min/kg
same,half-life,"[4]; plasma, IV 10 mg/kg, read-out: T1/2 (IV) (converted)",0.7 h
same,Vd,"[4]; plasma, IV 10 mg/kg, read-out: Vss (IV)",1.2 L/kg
same,bioavailability,"[4]; plasma, IV 10 / PO 10 mg/kg",34%
same,Cmax,"[4]; plasma, PO 10 mg/kg",1700 nM
same,half-life,"[4]; plasma, PO 10 mg/kg, read-out: T1/2 (PO) (converted)",1.8 h
same,Salient Pathology Findings,"[5]; 1 month rat (po), 500 mg/kg/day","Reduced activity, pilo-erection, irregular respiration Seminal vesicle: secretory depletion, atrophy Epididymis: cellular debris (minimal) Spleen: increased congestion/haematopoiesis Cecum & rectum: mucosal hyperplasia"
same,Salient Pathology Findings,"[5]; 1 month rat (po), 1000 mg/kg/day",As above & testes tubular degeneration partially reversible 3 months post dosing
same,AUC(0-t),"[5]; both sexes, Han Wistar, blood, oral, rat, 200 mg/kg, day 27, read-out: AUC24h at NOAEL",1070 µg·h/mL
same,Cmax,"[5]; both sexes, Han Wistar, blood, oral, rat, 200 mg/kg, day 27, read-out: Cmax at NOAEL",107 µg/mL
same,NOAEL at 28 days,"[5]; both sexes, Han Wistar, oral, rat, 28 days",200 mg/kg
same,NOAEL at 28 days,"[5]; both sexes, Han Wistar, 1 month rat (po)",200 mg/kg/day
same,AUC,"[5]; both sexes, Han Wistar, plasma, 1 month rat (po), 200 mg/kg/day",1100 ± 130 µg·h/mL
same,Cmax,"[5]; both sexes, Han Wistar, plasma, 1 month rat (po), 200 mg/kg/day, read-out: Cmax (±SD)",110 ± 30 µg/mL
same,AUC,"[5]; both sexes, Han Wistar, plasma, 1 month rat (po), 500 mg/kg/day",2460 ± 470 µg·h/mL
same,Cmax,"[5]; both sexes, Han Wistar, plasma, 1 month rat (po), 500 mg/kg/day, read-out: Cmax (±SD)",170 ± 30 µg/mL
same,AUC,"[5]; both sexes, Han Wistar, plasma, 1 month rat (po), 1000 mg/kg/day",3820 ± 650 µg·h/mL
same,Cmax,"[5]; both sexes, Han Wistar, plasma, 1 month rat (po), 1000 mg/kg/day, read-out: Cmax (±SD)",260 ± 55 µg/mL
same,margin of fAUC at rat NOAEL to efficacious fAUC in mouse thigh model,"[5]; both, Han Wistar, rat, plasma, oral, 200 mg/kg",13 fold
same,haematology or platelet count at the NOAEL,[5]; rat,no significant changes in haematology or platelet count
same,tolerated dose,"[5]; rat, oral, 28 days",up to 1000 mg/kg/day
same,increase in AUC with high fat meal,[6]; 3000 mg,> 40%
same,serious adverse events,"[6]; Phase 1, 200–4000 mg",No serious adverse events
same,mild and non-serious AEs,"[6]; Phase 1, reversible in all subjects",transient dysgeusia and headache
same,AUC,[6]; [11],195 µg·h/mL
same,Cmax,[6]; [11],22.9 µg/mL
same,Tmax,"[6]; both sexes, human, plasma, oral, 3000 mg, fasting, read-out: Tmax",2.2 h
same,AUC,"[6]; both sexes, human, plasma, oral, 3000 mg, preceded by a high fat meal",281 µg·h/mL
same,Cmax,"[6]; both sexes, human, plasma, oral, 3000 mg, with food",24 µg/mL
same,Tmax,"[6]; both sexes, human, plasma, oral, 3000 mg, with food, read-out: Tmax",4 h
same,half-life,"[6]; both sexes, human, plasma, oral, 8 to 72 hour post-dose period",5.2 to 6.25 h
same,Tmax,"[6]; both sexes, human, plasma, po, fasting, 200–4000 mg single oral dose, read-out: median Tmax",1.5 to 2.26 h
same,oral dose excreted as parent drug in urine,"[6]; both, human, urine, po",Less than 5%
same,margin of human AUC to NOAEL in dog,[6]; highest 4000 mg dose,4.8 fold
same,margin of human AUC to NOAEL in rat,[6]; highest 4000 mg dose,6.4 fold
same,margin of human Cmax to NOAEL in dog,[6]; highest 4000 mg dose,3.7 fold
same,margin of human Cmax to NOAEL in rat,[6]; highest 4000 mg dose,4.9 fold
same,doses at which the efficacious AUC was exceeded,[6]; human AUC0-24h versus dose,> 800 mg
same,MIC,[7],0.125 µg/mL
same,MIC90,[8],0.25^2 µg/ml
same,MIC Range,[8],≤ 0.015 to 0.5 µg/mL
same,MIC90,[9],1.0^3 µg/ml
same,MIC Range,[9],0.5 to 1.0 µg/mL
same,IC50,"[10]; hERG IC50, K^+ rectifying current/QT interval",316 µM
same,margin of ion channel IC50 relative to Cmax,"[10]; ion channels including hERG, Cmax at highest 4000 mg Phase 1 dose",greater than 10 fold
